Results: the NIST ThermoML archive (doi:10.1016/j.fluid.2016.07.022)
± gives the expanded uncertainty stated by the source.

Assays:
[1] = 101.33 kPa, Liquid; for viscosity: Falling or rolling sphere viscometry; for speed of sound: Frequency=3 MHz, Single path-length method; for mass density: Vibrating tube method
[2] = wn = mass fraction of the nth substance listed; settings: 298.15 K, 100 kPa, Liquid; for viscosity: Falling or rolling sphere viscometry; for speed of sound: Frequency=3 MHz, Single path-length method; for mass density: Vibrating tube method

Row | Structure (SMILES) | viscosity ([1]; 293.15 K) [mPa·s] | speed of sound ([1]; 293.15 K) [m/s] | mass density ([1]; 293.15 K) [kg/m3] | viscosity ([1]; 298.15 K) [mPa·s] | speed of sound ([1]; 298.15 K) [m/s] | mass density ([1]; 298.15 K) [kg/m3] | viscosity ([1]; 303.15 K) [mPa·s] | speed of sound ([1]; 303.15 K) [m/s] | mass density ([1]; 303.15 K) [kg/m3] | viscosity ([1]; 308.15 K) [mPa·s] | speed of sound ([1]; 308.15 K) [m/s] | mass density ([1]; 308.15 K) [kg/m3] | viscosity ([1]; 313.15 K) [mPa·s] | speed of sound ([1]; 313.15 K) [m/s] | mass density ([1]; 313.15 K) [kg/m3] | viscosity ([1]; 318.15 K) [mPa·s] | speed of sound ([1]; 318.15 K) [m/s] | mass density ([1]; 318.15 K) [kg/m3] | viscosity ([1]; 323.15 K) [mPa·s] | speed of sound ([1]; 323.15 K) [m/s] | further results
1 | CCCC(=O)[O-].CCCC[NH2+]CCO [N-(2-hydroxyethyl)butan-1-aminium butyrate] | 748.6 ± 69 | 1484.6 ± 3.7 | 983.7 ± 2.6 | 576.8 ± 48 | 1466.6 ± 3.7 | 980.1 ± 2.6 | 435.9 ± 32 | 1449 ± 3.7 | 976.6 ± 2.6 | 318.9 ± 20 | 1431.9 ± 3.7 | 973 ± 2.6 | 231.6 ± 12 | 1415.2 ± 3.7 | 969.4 ± 2.6 | 158.1 ± 6.6 | 1398.7 ± 3.7 | 965.7 ± 2.6 | 122.4 ± 4.3 | 1382.4 ± 3.7 | mass density ([1]; 323.15 K): 962 ± 2.6 kg/m3; viscosity ([1]; 328.15 K): 92.6 ± 3 mPa·s; speed of sound ([1]; 328.15 K): 1366.2 ± 3.7 m/s; mass density ([1]; 328.15 K): 958.3 ± 2.6 kg/m3; viscosity ([1]; 333.15 K): 69.8 ± 2.4 mPa·s; speed of sound ([1]; 333.15 K): 1350.2 ± 3.7 m/s; mass density ([1]; 333.15 K): 954.5 ± 2.6 kg/m3; viscosity ([1]; 338.15 K): 55.2 ± 2.2 mPa·s; speed of sound ([1]; 338.15 K): 1334.1 ± 3.7 m/s; mass density ([1]; 338.15 K): 950.7 ± 2.5 kg/m3; viscosity ([1]; 343.15 K): 43.1 ± 2.1 mPa·s; speed of sound ([1]; 343.15 K): 1318.2 ± 3.7 m/s; mass density ([1]; 343.15 K): 946.9 ± 2.5 kg/m3
2 | CCCCC(=O)[O-].CCCC[NH2+]CCO [N-(2-hydroxyethyl)butan-1-aminium pentanoate] | 896.3 ± 88 | 1460 ± 3.7 | 970 ± 2.6 | 684.1 ± 61 | 1442.3 ± 3.7 | 966.5 ± 2.6 | 505.8 ± 40 | 1425.1 ± 3.7 | 963 ± 2.6 | 349.9 ± 24 | 1408.3 ± 3.7 | 959.4 ± 2.6 | 244.1 ± 14 | 1391.8 ± 3.7 | 955.8 ± 2.6 | 177.1 ± 8 | 1375.7 ± 3.7 | 952.2 ± 2.5 | 131.1 ± 4.8 | 1359.6 ± 3.7 | mass density ([1]; 323.15 K): 948.5 ± 2.5 kg/m3; viscosity ([1]; 328.15 K): 98.1 ± 3.2 mPa·s; speed of sound ([1]; 328.15 K): 1343.8 ± 3.7 m/s; mass density ([1]; 328.15 K): 944.8 ± 2.5 kg/m3; viscosity ([1]; 333.15 K): 73.9 ± 2.5 mPa·s; speed of sound ([1]; 333.15 K): 1328 ± 3.7 m/s; mass density ([1]; 333.15 K): 941.1 ± 2.5 kg/m3; viscosity ([1]; 338.15 K): 57.9 ± 2.2 mPa·s; speed of sound ([1]; 338.15 K): 1312.2 ± 3.7 m/s; mass density ([1]; 338.15 K): 937.4 ± 2.5 kg/m3; viscosity ([1]; 343.15 K): 45.4 ± 2.1 mPa·s; speed of sound ([1]; 343.15 K): 1296.6 ± 3.7 m/s; mass density ([1]; 343.15 K): 933.6 ± 2.5 kg/m3
3 | CCCC(=O)[O-].CCCC[NH2+]CCO [N-(2-hydroxyethyl)butan-1-aminium butyrate] + O | – | – | – | – | – | – | – | – | – | – | – | – | – | – | – | – | – | – | – | – | viscosity ([2]; w2 = 0.002762): 197.67 ± 9.7 mPa·s; viscosity ([2]; w2 = 0.004186): 190.86 ± 9.1 mPa·s; viscosity ([2]; w2 = 0.005795): 185.52 ± 8.7 mPa·s; viscosity ([2]; w2 = 0.006761): 182.63 ± 8.4 mPa·s; speed of sound ([2]; w2 = 0.002762): 1464.6 ± 3.7 m/s; speed of sound ([2]; w2 = 0.004186): 1466.2 ± 3.7 m/s; speed of sound ([2]; w2 = 0.005795): 1467.9 ± 3.7 m/s; speed of sound ([2]; w2 = 0.006761): 1468.9 ± 3.7 m/s; mass density ([2]; w2 = 0.002762): 980.15 ± 5.2 kg/m3; mass density ([2]; w2 = 0.004186): 981.17 ± 5.2 kg/m3; mass density ([2]; w2 = 0.005795): 982.18 ± 5.2 kg/m3; mass density ([2]; w2 = 0.006761): 982.74 ± 5.2 kg/m3
4 | CCCC[NH2+]CCO.O=C[O-] [N-(2-hydroxyethyl)butan-1-aminium formate] | 474.4 ± 37 | 1616.5 ± 3.7 | 1038.1 ± 2.7 | 332.8 ± 22 | 1602.4 ± 3.7 | 1035.1 ± 2.7 | 234.2 ± 13 | 1588.4 ± 3.7 | 1032.1 ± 2.7 | 170.2 ± 7.5 | 1574.7 ± 3.7 | 1029.1 ± 2.7 | 128.3 ± 4.6 | 1561.4 ± 3.7 | 1026.1 ± 2.7 | 96.9 ± 3.2 | 1548.2 ± 3.7 | 1023.1 ± 2.7 | 75 ± 2.5 | 1535.1 ± 3.7 | mass density ([1]; 323.15 K): 1020.1 ± 2.7 kg/m3; viscosity ([1]; 328.15 K): 57.3 ± 2.2 mPa·s; speed of sound ([1]; 328.15 K): 1522.2 ± 3.7 m/s; mass density ([1]; 328.15 K): 1017 ± 2.7 kg/m3; viscosity ([1]; 333.15 K): 45.7 ± 2.1 mPa·s; speed of sound ([1]; 333.15 K): 1509.2 ± 3.7 m/s; mass density ([1]; 333.15 K): 1013.9 ± 2.7 kg/m3; viscosity ([1]; 338.15 K): 36.3 ± 2.1 mPa·s; speed of sound ([1]; 338.15 K): 1496.4 ± 3.7 m/s; mass density ([1]; 338.15 K): 1010.9 ± 2.7 kg/m3; viscosity ([1]; 343.15 K): 29.3 ± 2.1 mPa·s; speed of sound ([1]; 343.15 K): 1483.4 ± 3.7 m/s; mass density ([1]; 343.15 K): 1007.8 ± 2.7 kg/m3
5 | CCC(=O)[O-].CCCC[NH2+]CCO [N-(2-hydroxyethyl)butan-1-aminium propionate] | 675.6 ± 60 | 1513.8 ± 3.7 | 1004.9 ± 2.6 | 502.6 ± 40 | 1496.1 ± 3.7 | 1001.4 ± 2.6 | 385.1 ± 27 | 1478.9 ± 3.7 | 997.9 ± 2.6 | 282.1 ± 17 | 1462.2 ± 3.7 | 994.4 ± 2.6 | 212 ± 11 | 1445.9 ± 3.7 | 990.8 ± 2.6 | 155 ± 6.3 | 1429.7 ± 3.7 | 987.3 ± 2.6 | 115.6 ± 4 | 1413.7 ± 3.7 | mass density ([1]; 323.15 K): 983.6 ± 2.6 kg/m3; viscosity ([1]; 328.15 K): 87.6 ± 2.8 mPa·s; speed of sound ([1]; 328.15 K): 1397.4 ± 3.7 m/s; mass density ([1]; 328.15 K): 979.9 ± 2.6 kg/m3; viscosity ([1]; 333.15 K): 67.4 ± 2.3 mPa·s; speed of sound ([1]; 333.15 K): 1381.6 ± 3.7 m/s; mass density ([1]; 333.15 K): 976.3 ± 2.6 kg/m3; viscosity ([1]; 338.15 K): 52.4 ± 2.2 mPa·s; speed of sound ([1]; 338.15 K): 1365.8 ± 3.7 m/s; mass density ([1]; 338.15 K): 972.5 ± 2.6 kg/m3; viscosity ([1]; 343.15 K): 41.6 ± 2.1 mPa·s; speed of sound ([1]; 343.15 K): 1350.1 ± 3.7 m/s; mass density ([1]; 343.15 K): 968.8 ± 2.6 kg/m3
6 | CC(=O)[O-].CCCC[NH2+]CCO [N-(2-hydroxyethyl)butan-1-aminium acetate] | 548.2 ± 45 | 1566.5 ± 3.7 | 1021.2 ± 2.7 | 421.6 ± 31 | 1546.5 ± 3.7 | 1017.8 ± 2.7 | 295.4 ± 18 | 1528.1 ± 3.7 | 1014.3 ± 2.7 | 214.5 ± 11 | 1510.8 ± 3.7 | 1010.8 ± 2.7 | 158.4 ± 6.6 | 1494 ± 3.7 | 1007.3 ± 2.7 | 119 ± 4.2 | 1477.6 ± 3.7 | 1003.8 ± 2.6 | 89.4 ± 2.9 | 1461.4 ± 3.7 | mass density ([1]; 323.15 K): 1000.3 ± 2.6 kg/m3; viscosity ([1]; 328.15 K): 68.6 ± 2.3 mPa·s; speed of sound ([1]; 328.15 K): 1445.2 ± 3.7 m/s; mass density ([1]; 328.15 K): 996.6 ± 2.6 kg/m3; viscosity ([1]; 333.15 K): 54 ± 2.2 mPa·s; speed of sound ([1]; 333.15 K): 1429.3 ± 3.7 m/s; mass density ([1]; 333.15 K): 993 ± 2.6 kg/m3; viscosity ([1]; 338.15 K): 42.9 ± 2.1 mPa·s; speed of sound ([1]; 338.15 K): 1413.2 ± 3.7 m/s; mass density ([1]; 338.15 K): 989.3 ± 2.6 kg/m3; viscosity ([1]; 343.15 K): 34.5 ± 2.1 mPa·s; speed of sound ([1]; 343.15 K): 1397.2 ± 3.7 m/s; mass density ([1]; 343.15 K): 985.6 ± 2.6 kg/m3
